Experimental data from PubChem BioAssay AID1963438 (Molecular Pharmacology Branch, DTP, NCI, 2024).
Several values for one entry are separate records, joined by “and”; a condition that tells them apart may be missing. Equal values may be shown once.

Test system: NCI-H510 multicellular tumor spheroid growth, % test/control
Assay: Anticancer human tumor NCI-H510 cell line growth inhibition [Asc];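 also: spheroids exposed to agents for 7 days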;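 as to viability, T/C: 100% = DMSO vehicle control wells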
Details: for viability, T/C: stronger effect = lower value
Procedure, shortened: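 Tumor cells were grown as multicellular spheroids with stromal HUVEC and mesenchymal stem cells and treated singly or in combination. Concentrations fell in half-log steps from the clinical Cmax, or from 10 microM where none was known.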

[1] = curve of first compound, second compound 0.03 µM
[2] = curve of first compound, second compound 0.0949 µM
[3] = curve of first compound, second compound 0.3 µM
[4] = curve of first compound, second compound 0.949 µM
[5] = curve of first compound, second compound 3 µM
[6] = second compound 0.03 µM, first compound 0.0316 µM
[7] = second compound 0.03 µM, first compound 0.1 µM
[8] = second compound 0.0949 µM, first compound 0.0316 µM
[9] = second compound 0.0949 µM, first compound 0.1 µM
[10] = second compound 0.3 µM, first compound 0.0316 µM
[11] = second compound 0.3 µM, first compound 0.1 µM
[12] = second compound 0.949 µM, first compound 0.0316 µM
[13] = second compound 0.949 µM, first compound 0.1 µM
[14] = second compound 3 µM, first compound 0.0316 µM
[15] = second compound 3 µM, first compound 0.1 µM

SMILES: C=CC(=O)N1CCN(c2nc(=O)n(-c3c(C)ccnc3C(C)C)c3nc(-c4c(O)cccc4F)c(F)cc23)C(C)C1 (configuration not stated) + CCN1C(C(=O)NC23CCC(C(=O)O)(CC2)CC3)C(c2cccc(Cl)c2F)C2(C(=O)Nc3cc(Cl)ccc32)C12CCCCC2
- IC50 [1]: > 10 µM
- IC50 [2]: > 10 µM
- IC50 [3]: > 10 µM
- IC50 [4]: > 10 µM
- IC50 [5]: > 10 µM
- viability, T/C [6]: 70.7%
- viability, T/C [7]: 108%
- viability, T/C (second compound 0.03 µM, first compound 0.316 µM): 81%
- viability, T/C (second compound 0.03 µM, first compound 1 µM): 100%
- viability, T/C (second compound 0.03 µM, first compound 3.16 µM): 90.2%
- viability, T/C (second compound 0.03 µM, first compound 10 µM): 98.3%
- viability, T/C [8]: 117%
- viability, T/C [9]: 117%
- viability, T/C (second compound 0.0949 µM, first compound 0.316 µM): 98.5%
- viability, T/C (second compound 0.0949 µM, first compound 1 µM): 105%
- viability, T/C (second compound 0.0949 µM, first compound 3.16 µM): 96.8%
- viability, T/C (second compound 0.0949 µM, first compound 10 µM): 89.5%
- viability, T/C [10]: 90.3%
- viability, T/C [11]: 103%
- viability, T/C (second compound 0.3 µM, first compound 0.316 µM): 91.5%
- viability, T/C (second compound 0.3 µM, first compound 1 µM): 101%
- viability, T/C (second compound 0.3 µM, first compound 3.16 µM): 98.4%
- viability, T/C (second compound 0.3 µM, first compound 10 µM): 95.6%
- viability, T/C [12]: 100%
- viability, T/C [13]: 107%
- viability, T/C (second compound 0.949 µM, first compound 0.316 µM): 109%
- viability, T/C (second compound 0.949 µM, first compound 1 µM): 104%
- viability, T/C (second compound 0.949 µM, first compound 3.16 µM): 91.3%
- viability, T/C (second compound 0.949 µM, first compound 10 µM): 92.4%
- viability, T/C [14]: 116%
- viability, T/C [15]: 97.8%
- viability, T/C (second compound 3 µM, first compound 0.316 µM): 85.3%
- viability, T/C (second compound 3 µM, first compound 1 µM): 101%
- viability, T/C (second compound 3 µM, first compound 3.16 µM): 103%
- viability, T/C (second compound 3 µM, first compound 10 µM): 79.2%

SMILES: C#Cc1c(F)ccc2cc(O)cc(-c3ncc4c(N5CC6CCC(C5)N6)nc(OCC56CCCN5CC(F)C6)nc4c3F)c12 (configuration not stated)
- viability, T/C (compound 0.0316 µM): 111% and 93.4% and 94.4%
- viability, T/C (compound 0.1 µM): 104% and 103% and 112%
- viability, T/C (compound 0.316 µM): 99.3% and 99.1% and 92.8%
- viability, T/C (compound 1 µM): 94.8% and 105% and 84.2%
- viability, T/C (compound 3.16 µM): 106% and 112% and 123%
- viability, T/C (compound 10 µM): 99.8% and 88.4% and 92.8%
- IC50 (curve of compound): > 10 µM

SMILES: O=C(c1cc(Cc2n[nH]c(=O)c3ccccc23)ccc1F)N1CCN(C(=O)C2CC2)CC1
- viability, T/C (compound 0.0316 µM): 93% and 95.9% and 99.4%
- viability, T/C (compound 0.1 µM): 101% and 80.6% and 86.1%
- viability, T/C (compound 0.316 µM): 69.5% and 59% and 83.9%
- viability, T/C (compound 1 µM): 60% and 90.4% and 76.8%
- viability, T/C (compound 3.16 µM): 29% and 43.1% and 88%
- IC50 (curve of compound): 1.3 µM and 2.57 µM and > 10 µM

SMILES: NC1CCC(NC2CC2c2ccccc2)CC1 (configuration not stated) + CCN1C(C(=O)NC23CCC(C(=O)O)(CC2)CC3)C(c2cccc(Cl)c2F)C2(C(=O)Nc3cc(Cl)ccc32)C12CCCCC2
- IC50 [1]: > 0.1 µM
- IC50 [2]: > 0.1 µM
- IC50 [3]: > 0.1 µM
- IC50 [4]: > 0.1 µM
- IC50 [5]: 0.0848 µM
- viability, T/C (second compound 0.03 µM, first compound 0.000316 µM): 85.9%
- viability, T/C (second compound 0.03 µM, first compound 0.001 µM): 84.4%
- viability, T/C (second compound 0.03 µM, first compound 0.00316 µM): 82.5%
- viability, T/C (second compound 0.03 µM, first compound 0.01 µM): 81.9%
- viability, T/C [6]: 92.4%
- viability, T/C [7]: 91.9%
- viability, T/C (second compound 0.0949 µM, first compound 0.000316 µM): 101%
- viability, T/C (second compound 0.0949 µM, first compound 0.001 µM): 71.6%
- viability, T/C (second compound 0.0949 µM, first compound 0.00316 µM): 77.5%
- viability, T/C (second compound 0.0949 µM, first compound 0.01 µM): 78.7%
- viability, T/C [8]: 60.6%
- viability, T/C [9]: 71.3%
- viability, T/C (second compound 0.3 µM, first compound 0.000316 µM): 92.4%
- viability, T/C (second compound 0.3 µM, first compound 0.001 µM): 85.8%
- viability, T/C (second compound 0.3 µM, first compound 0.00316 µM): 98.3%
- viability, T/C (second compound 0.3 µM, first compound 0.01 µM): 95.8%
- viability, T/C [10]: 73.3%
- viability, T/C [11]: 55.8%
- viability, T/C (second compound 0.949 µM, first compound 0.000316 µM): 83.8%
- viability, T/C (second compound 0.949 µM, first compound 0.001 µM): 92.9%
- viability, T/C (second compound 0.949 µM, first compound 0.00316 µM): 90.6%
- viability, T/C (second compound 0.949 µM, first compound 0.01 µM): 80.8%
- viability, T/C [12]: 72.3%
- viability, T/C [13]: 60.5%
- viability, T/C (second compound 3 µM, first compound 0.000316 µM): 106%
- viability, T/C (second compound 3 µM, first compound 0.001 µM): 82.3%
- viability, T/C (second compound 3 µM, first compound 0.00316 µM): 79.8%
- viability, T/C (second compound 3 µM, first compound 0.01 µM): 75.2%
- viability, T/C [14]: 60%
- viability, T/C [15]: 46.6%

SMILES: C#Cc1c(F)ccc2cc(O)cc(-c3ncc4c(N5CC6CCC(C5)N6)nc(OCC56CCCN5CC(F)C6)nc4c3F)c12 (configuration not stated) + CNC(C)C(=O)NC1CN(S(=O)(=O)c2cccc(S(=O)(=O)N3CCC4CCC(C(=O)NC(c5ccccc5)c5ccccc5)N4C(=O)C(NC(=O)C(C)NC)C3)c2)CCC2CCC(C(=O)NC(c3ccccc3)c3ccccc3)N2C1=O
- IC50 (curve of first compound, second compound 0.00316 µM): > 10 µM
- IC50 (curve of first compound, second compound 0.01 µM): > 10 µM
- IC50 (curve of first compound, second compound 0.0316 µM): > 10 µM
- IC50 (curve of first compound, second compound 0.1 µM): > 10 µM
- IC50 (curve of first compound, second compound 0.316 µM): > 10 µM
- IC50 (curve of first compound, second compound 1 µM): > 10 µM
- viability, T/C (second compound 0.00316 µM, first compound 0.0316 µM): 97.9%
- viability, T/C (second compound 0.00316 µM, first compound 0.1 µM): 101%
- viability, T/C (second compound 0.00316 µM, first compound 0.316 µM): 93.2%
- viability, T/C (second compound 0.00316 µM, first compound 1 µM): 87.7%
- viability, T/C (second compound 0.00316 µM, first compound 3.16 µM): 102%
- viability, T/C (second compound 0.00316 µM, first compound 10 µM): 104%
- viability, T/C (second compound 0.01 µM, first compound 0.0316 µM): 109%
- viability, T/C (second compound 0.01 µM, first compound 0.1 µM): 98.3%
- viability, T/C (second compound 0.01 µM, first compound 0.316 µM): 97.1%
- viability, T/C (second compound 0.01 µM, first compound 1 µM): 99.7%
- viability, T/C (second compound 0.01 µM, first compound 3.16 µM): 107%
- viability, T/C (second compound 0.01 µM, first compound 10 µM): 93.3%
- viability, T/C (second compound 0.0316 µM, first compound 0.0316 µM): 103%
- viability, T/C (second compound 0.0316 µM, first compound 0.1 µM): 97.7%
- viability, T/C (second compound 0.0316 µM, first compound 0.316 µM): 96.7%
- viability, T/C (second compound 0.0316 µM, first compound 1 µM): 106%
- viability, T/C (second compound 0.0316 µM, first compound 3.16 µM): 114%
- viability, T/C (second compound 0.0316 µM, first compound 10 µM): 90.8%
- viability, T/C (second compound 0.1 µM, first compound 0.0316 µM): 112%
- viability, T/C (second compound 0.1 µM, first compound 0.1 µM): 103%
- viability, T/C (second compound 0.1 µM, first compound 0.316 µM): 97.8%
- viability, T/C (second compound 0.1 µM, first compound 1 µM): 97.8%
- viability, T/C (second compound 0.1 µM, first compound 3.16 µM): 112%
- viability, T/C (second compound 0.1 µM, first compound 10 µM): 96.6%
- viability, T/C (second compound 0.316 µM, first compound 0.0316 µM): 114%
- viability, T/C (second compound 0.316 µM, first compound 0.1 µM): 101%
- viability, T/C (second compound 0.316 µM, first compound 0.316 µM): 104%
- viability, T/C (second compound 0.316 µM, first compound 1 µM): 104%
- viability, T/C (second compound 0.316 µM, first compound 3.16 µM): 97.7%
- viability, T/C (second compound 0.316 µM, first compound 10 µM): 114%
- viability, T/C (second compound 1 µM, first compound 0.0316 µM): 120%
- viability, T/C (second compound 1 µM, first compound 0.1 µM): 107%
- viability, T/C (second compound 1 µM, first compound 0.316 µM): 108%
- viability, T/C (second compound 1 µM, first compound 1 µM): 95.7%
- viability, T/C (second compound 1 µM, first compound 3.16 µM): 104%
- viability, T/C (second compound 1 µM, first compound 10 µM): 114%

SMILES: CCN1CCN(Cc2ccc(Nc3ncc(F)c(-c4cc(F)c5nc(C)n(C(C)C)c5c4)n3)nc2)CC1
- viability, T/C (compound 0.00316 µM): 99.7% and 83.9% and 97.2%
- viability, T/C (compound 0.01 µM): 95.4% and 91.7% and 83.9%
- viability, T/C (compound 0.0316 µM): 104% and 102% and 97.5%
- viability, T/C (compound 0.1 µM): 93.1% and 78.6% and 112%
- viability, T/C (compound 0.316 µM): 99.7% and 82.1% and 106%
- viability, T/C (compound 1 µM): 76.2% and 98% and 106%
- IC50 (curve of compound): > 1 µM
